Laboratory results reported in ChEMBL document CHEMBL6134839, “Novel 15-lipoxygenase-1 inhibitor protects cells from RSL3-induced cell death” (Eur J Med Chem, 2025).

Tests used:
[1] = molecular target: T1, Polyunsaturated fatty acid lipoxygenase ALOX15 (Homo sapiens, UniProt P16050); assay: Inhibition of human 15-LOX-1 using linoleic acid as substrate preincubated for 10 mins followed by substrate addition
T1 sequence (P16050 whole entry): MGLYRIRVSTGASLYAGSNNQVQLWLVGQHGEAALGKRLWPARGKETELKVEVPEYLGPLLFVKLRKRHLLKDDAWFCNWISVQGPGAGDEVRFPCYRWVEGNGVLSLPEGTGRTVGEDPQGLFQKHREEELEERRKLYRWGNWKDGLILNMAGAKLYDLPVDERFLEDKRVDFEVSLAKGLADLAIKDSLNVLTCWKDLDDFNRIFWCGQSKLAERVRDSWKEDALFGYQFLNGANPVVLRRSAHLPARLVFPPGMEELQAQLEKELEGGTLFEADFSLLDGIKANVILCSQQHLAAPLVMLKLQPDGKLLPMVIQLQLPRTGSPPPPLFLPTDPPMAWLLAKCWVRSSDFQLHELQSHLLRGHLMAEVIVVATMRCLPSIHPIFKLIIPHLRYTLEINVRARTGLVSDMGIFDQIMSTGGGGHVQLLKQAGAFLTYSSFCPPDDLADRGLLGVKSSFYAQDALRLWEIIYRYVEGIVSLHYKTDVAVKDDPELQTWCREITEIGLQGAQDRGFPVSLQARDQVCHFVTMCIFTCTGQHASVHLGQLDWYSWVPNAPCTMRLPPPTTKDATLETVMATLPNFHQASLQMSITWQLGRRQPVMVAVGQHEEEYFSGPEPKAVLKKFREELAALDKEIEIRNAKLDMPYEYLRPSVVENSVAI

[2] = Inhibition of RSL3-induced lipid peroxidation in human HEK293 cells incubated for 3 hrs by C11-BODIPY581/591 probe based flow cytometry analysis; type: functional, cell-based

c1ccc2c(c1)SCc1c-2[nH]c2ccccc12
IC50 [1]: 10 µM | EC50 [2]: 1.2 µM
